Assay results published in US8975232B2, “Macrocyclic kinase inhibitors and uses thereof” (President and Fellows of Harvard College, priority 2010, dated 2015).
Read-outs that look alike come from different tables or passages of the source.

Key:
[1] = molecular target: T1, Src kinase domain (chicken c-Src residues 251-533) (Gallus gallus, UniProt P00523); assay: Continuous spectrophotometric kinase activity assay; format: biochemical; conditions: Src kinase domain; 5 μM ATP, 100 μM Src optimal peptide
T1 construct: chicken c-Src (residues 251-533 and residues 83-533); made in house
From the text: (§1) Kinase domain constructs of human c-Abl (residues 229-512), chicken c-Src (residues 251-533 and residues 83-533), murine Lck (residues 227-509), and human Hck (residues 166-445) were expressed as previously described (Seeliger, Young et al. 2005; Seeliger, Nagar et al. 2007; the entire contents of each of which are incorporated by reference herein). Mutations were introduced into chicken c-Src (residues 251-533) (T338I, C277Q, L297M) by site-directed mutagenesis and verified by DNA sequencing.
In vitro kinase inhibition assays were performed using either a continuous spectrophotometric assay or a FRET-based endpoint assay.
The original characterization of kinase inhibition was performed with a commercial kinase assay that relies on a fluorescently labeled peptide kinase substrate (Z-LYTE, Invitrogen). For further characterization, a continuous spectrophotometric kinase activity assay was employed that is easily adapted to different substrate peptides as well as a wider range of peptide and ATP concentrations.

[2] = molecular target: T2, Src83-533 (chicken c-Src 83-533) (Gallus gallus, UniProt P00523); assay: Kinase activity assay with longer Src construct including SH3 and SH2 domains; format: biochemical; conditions: Src wild-type construct containing SH3 and SH2 domains
T2 construct: the regulatory SH3 and SH2 domains (chicken c-Src 83-533); made in house
From the text: as §1
In vitro kinase inhibition assays were performed using either a continuous spectrophotometric assay or a FRET-based endpoint assay. […]
To address this discrepancy, the two major differences between the fluorescent peptide-based Z′-LYTE assay and the continuous spectrophotometric assay employed here were investigated: the kinase construct used (full-length kinase in the Z-LYTE assay vs. kinase domain in the current study) and the peptide identity and concentration (5 μM fluorescent Abl-optimal substrate peptide in the previous study vs. 100 μM Src-optimal substrate peptide in the current study). […] The IC50 values determined for MC1.2 and MC4.1 were close to the concentration of the kinase used in the assay and therefore these values only represent an upper estimate of the real potency of these compounds.

[3] = test system: Src Thr338Ile; assay: Inhibition of Src gatekeeper mutant; format: biochemical, chicken
From the text: as §1
For the FRET-based endpoint assay, kinase assays were performed using Invitrogen's Z′-LYTE kinase assay using the Tyr 02 substrate peptide (based upon the optimal Abl substrate peptide […]) according to the manufacturer's instructions. Assays were performed at near KM ATP concentrations for full-length c-Src and full-length c-Src T338I-50 μM and 7 μM, respectively.

[4] = molecular target: T3, Src kinase domain (Gallus gallus, UniProt P00523); assay: Fluorescence anisotropy binding assay; design: species or system chicken; conditions: fluorescein-labeled macrocycle, read-out: dissociation constant (KD)
T3 construct: chicken c-Src (residues 251-533 and residues 83-533); made in house
Procedure: The change in fluorescence anisotropy of fluorescein-labeled MC1, MC4 and MC9 at 518 nm upon excitation at 492 nm was monitored with a HORIBA Jobin Yvon FluoroMax-4 (Edison, N.J.) spectrofluorimeter. Kinase was titrated to 0.5 μM of the fluorescently labeled macrocycle in 100 mM Tris pH 8.0, 10 mM MgCl2 at 25° C. After equilibration, the increase in the fluorescence anisotropy of the fluorescently labeled ligand was recorded and fitted against a quadratic binding equation in Kaleidagraph (Synergy Software, Reading Pa.) to yield the dissociation constant KD.
To clarify the inhibitory mechanism of the compounds further, the binding affinity of fluorescently labeled MC1, MC4, and MC9 to Src kinase domain was determined in a fluorescence anisotropy assay (FIG. 21).

[5] = molecular target: Src kinase (Homo sapiens, UniProt P12931); assay: Z'-LYTE kinase assay (Invitrogen), Src; format: biochemical; design: full-length kinase in the Z-LYTE assay vs. kinase domain in the current study; purchased Millipore; conditions: Z'-LYTE; ATP near KM
Procedure: Nine macrocycles enriched in the Src selection (FIG. 5) and synthesized as described above were assayed in vitro for the ability to inhibit Src kinase activity. Kinase activity was assayed in the presence of varying concentrations of macrocycle using the FRET-based Z′-LYTE assay (Invitrogen).
Src IC50 determinations and single-point inhibition measurements were performed using Invitrogen's Z′-LYTE Tyr 02 assay kit according to the manufacturer's protocols. All kinase assays were performed at ATP concentrations near KM,ATP values, except where noted otherwise. Active human Src kinase was obtained from Millipore. For kinome profiling and IC50 determinations against non-Src kinases, compounds were submitted to Invitrogen's SelectScreen Kinase Profiling Service.

Chain of Src kinase (P12931 whole entry, the tested form may be a part): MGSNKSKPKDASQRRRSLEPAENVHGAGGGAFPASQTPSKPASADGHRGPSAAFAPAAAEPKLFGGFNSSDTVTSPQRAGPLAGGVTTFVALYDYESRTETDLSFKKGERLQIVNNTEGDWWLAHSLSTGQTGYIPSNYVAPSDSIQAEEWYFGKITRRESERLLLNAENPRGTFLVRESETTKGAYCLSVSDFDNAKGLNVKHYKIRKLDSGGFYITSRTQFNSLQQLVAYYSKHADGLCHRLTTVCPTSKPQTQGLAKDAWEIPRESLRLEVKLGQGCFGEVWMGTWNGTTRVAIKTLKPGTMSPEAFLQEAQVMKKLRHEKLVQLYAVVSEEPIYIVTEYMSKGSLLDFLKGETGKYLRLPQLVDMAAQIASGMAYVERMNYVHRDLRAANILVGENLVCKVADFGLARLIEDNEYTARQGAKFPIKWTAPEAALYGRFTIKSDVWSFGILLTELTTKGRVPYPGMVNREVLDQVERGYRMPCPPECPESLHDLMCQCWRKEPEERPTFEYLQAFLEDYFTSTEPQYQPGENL

In the case of NC(=O)[C@@H]1CCNC(=O)[C@H](CCCNC(=O)c2cnccn2)NC(=O)[C@H](CC2CCCCC2)NC(=O)[C@H](C/C=C/c2ccccc2)NC(=O)/C=C\C(=O)N1 [cis-A11-B8-C10-D7], the IC50 [1] is reported as 69 µM, the IC50 [2] is reported as 0.39 µM and the “lower potency against gatekeeper mutant than against Src wild-type” value [3] is reported as “about 3 fold”. It also gave an IC50 ([3]; Src Thr338Ile containing SH3 and SH2 domains) of 1 µM, a Kd ([4]; 250 μM AMP-PNP) of 12.6 µM and a Kd ([4]; no competitor) of 3.6 µM. It also gave an IC50 [5] of 25 µM.
